US20170121322A1, “BET-PROTEIN INHIBITING 3,4-DIHYDROPYRIDO[2,3-B]PYRAZINONES WITH META-SUBSTITUTED AROMATIC AMINO- OR ETHER GROUPS” (Bayer Pharma Aktiengesellschaft, priority 2014, published 2017)

Experiments:
[1] = target: T1, BRD4 bromo domain 2 [BRD4(2)] (Homo sapiens, UniProt O60885); experiment: BRD4(2)/acetylated peptide H4 TR-FRET binding assay; settings: His6-BRD4(2) (aa 357-445) vs acetylated histone H4 peptide
T1 construct: N-terminally His6-tagged BRD4(2) (amino acids 357-445); made in house; host or cells: E. coli
Text: To assess the BRD4(2) binding strength of the substances described in this application, the ability thereof to inhibit the interaction between BRD4(2) and acetylated histone H4 in a dose-dependent manner was quantified.
(§1) For this purpose, a time-resolved fluorescence resonance energy transfer (TR-FRET) assay was used, which measures the binding between N-terminally His6-tagged BRD4(2) (amino acids 357-445) and a synthetic acetylated histone H4 (Ac-H4) peptide with sequence SGRGK(Ac)GGK(Ac)GLGK(Ac)GGAK(Ac)RHRKVLRDNGSGSK-biotin. The recombinant BRD4(2) protein produced in-house according to Filippakopoulos et al., Cell, 2012, 149:214-231 was expressed in E. coli and purified by means of (Ni-NTA) affinity and (Sephadex G-75) size exclusion chromatography. The Ac-H4 peptide can be purchased, for example, from Biosyntan (Berlin, Germany).
(§2) In the assay, typically 11 different concentrations of each substance (0.1 nM, 0.33 nM, 1.1 nM, 3.8 nM, 13 nM, 44 nM, 0.15 μM, 0.51 μM, 1.7 μM, 5.9 μM and 20 μM) were analysed as duplicates on the same microtitre plate. For this purpose, 100-fold concentrated solutions in DMSO were prepared by serial dilutions (1:3.4) of a 2 mM stock solution into a clear, 384-well microtitre plate (Greiner Bio-One, Frickenhausen, Germany). From this, 50 nl were transferred into a black test plate (Greiner Bio-One, Frickenhausen, Germany). The test was started by the addition of 2 μl of a 2.5-fold concentrated BRD4(2) solution (final concentration typically 100 nM in the 5 μl of reaction volume) in aqueous assay buffer [50 mM HEPES pH 7.5, 50 mM sodium chloride (NaCl); 50 mM potassium fluoride (KF); 0.25 mM CHAPS and 0.05% serum albumin (BSA)] to the substances in the test plate. This was followed by a 10-minute incubation step at 22° C. for the pre-equilibration of putative complexes between BRD4(2) and the substances.
(§3) The mixture was then incubated in the dark at 22° C. for one hour and then at 4° C. for at least 3 hours and for no longer than overnight. The formation of BRD4(2)/Ac-H4 complexes was determined by the measurement of the resonance energy transfer from the streptavidin-Eu chelate to the anti-6His-XL665 antibody present in the reaction. For this purpose, the fluorescence emission was measured at 620 nm and 665 nm after excitation at 330-350 nm in a TR-FRET measuring instrument, for example a Rubystar or Pherastar (both from BMG Lab Technologies, Offenburg, Germany) or a Viewlux (Perkin-Elmer). The ratio of the emissions at 665 nm and at 622 nm was taken as an indicator of the amount of BRD4(2)/Ac-H4 complexes formed.
(§4) The data (ratios) obtained were normalized, with 0% inhibition corresponding to the mean from the measurements for a set of controls (typically 32 data points) in which all the reagents were present. In these, in place of test substances, 50 nl of DMSO (100%) were used. Inhibition of 100% corresponded to the mean from the measurements for a set of controls (typically 32 data points) in which all the reagents except BRD4(2) were present. The IC50 was determined by regression analysis based on a 4-parameter equation (minimum, maximum, IC50, Hill; Y=Max+(Min−Max)/(1+(X/IC50)Hill)).

MOLM-13 cells = experiment: Cell proliferation assay MOLM-13, method 2 (CellTiterGlo); type: cell-based; settings: Homo sapiens, MOLM-13, 72 h; acute myeloid leukaemia cells, 500 cells/well, 1536-well, 3-day incubation, CellTiterGlo ATP readout
Method: Alternatively, the MOLM-13 cells (DSMZ, ACC 554) were seeded at a concentration of 500 cells/well in 5 μl of growth medium (RPMI1640, 10% FCS) on 1536-well microtitre plates (method 2).
In method 2, after 3-day incubation with the inhibitor, the ATP concentration was determined as readout for the cell number using the CellTiterGlo kit (Promega). The measurement was carried out using a luminometer.
The substances were tested in the cell lines in Table 2, which represent the indications specified by way of example: […]

[2] = target: T2, BRD4 bromo domain 1 [BRD4(1)] (Homo sapiens, UniProt O60885); experiment: BRD4(1)/acetylated peptide H4 TR-FRET binding assay; settings: His6-BRD4(1) (aa 67-152) vs acetylated histone H4 peptide
T2 construct: N-terminally His6-tagged BRD4(1) (amino acids 67-152); made in house; host or cells: E. coli
Text: To assess the BRD4(1) binding strength of the substances described in this application, the ability thereof to inhibit the interaction between BRD4(1) and acetylated histone H4 in a dose-dependent manner was quantified.
as §1, with “BRD4(1)” for “BRD4(2)”, “67-152)” for “357-445)”, “GRGK(Ac)GGK(Ac)GLGK(Ac)GGAK(Ac)RHGSGSK-biotin.” for “SGRGK(Ac)GGK(Ac)GLGK(Ac)GGAK(Ac)RHRKVLRDNGSGSK-biotin.”
as §2, with “concentrated BRD4(1)” for “concentrated BRD4(2)”, “typically 10” for “typically 100”, “chloride (NaCl),” for “chloride (NaCl); 50 mM potassium fluoride (KF);”, “between BRD4(1)” for “between BRD4(2)”, “substances. Subsequently, 3 μl of a solution of 1.67 times the concentration (in assay buffer) consisting of Ac-H4 peptide (83.5 nM) and TR-FRET detection reagents [16.7 nM anti-6His-XL665 and 3.34 nM streptavidin cryptate (both from Cisbio Bioassays, Codolet, France), and 668 mM potassium fluoride (KF)] were added.” for “substances.”
as §3, with “BRD4(1)/Ac-H4” for “BRD4(2)/Ac-H4”, “cryptate” for “chelate”
as §4, with “BRD4(1)” for “BRD4(2)”, “Y=Max+(Min−Max)/(1+(X/IC50)Hill).” for “Y=Max+(Min−Max)/(1+(X/IC50)Hill)).”

IC50 [1] [nM]	IC50 (MOLM-13 cells) [nM]	IC50 [2] [nM]	Structure (SMILES)
29	40	945	CCS(=O)(=O)c1ccc(Oc2ccc(F)cc2)c(Nc2ccc3c(n2)N(C2CCN(C)CC2)[C@H](C)C(=O)N3C)c1 [Example 32, (3R)-6-{[5-(Ethylsulphonyl)-2-(4-fluorophenoxy)phenyl]amino}-1,3-dimethyl-4-(1-methylpiperidin-4-yl)-3,4-dihydropyrido[2,3-b]pyrazin-2(1H)-one]
51	26	15	CCS(=O)(=O)c1ccc(Oc2ccccc2)c(Nc2ccc3c(n2)N(C2CCN(C)CC2)[C@H](C)C(=O)N3C)c1 [Example 33, (3R)-6-{[5-(Ethylsulphonyl)-2-phenoxyphenyl]amino}-1,3-dimethyl-4-(1-methylpiperidin-4-yl)-3,4-dihydropyrido[2,3-b]pyrazin-2(1H)-one]
49	160	34	CCS(=O)(=O)c1ccc(Oc2ccccc2)c(Nc2ccc3c(n2)N(C2CCOCC2)[C@H](C)C(=O)N3C)c1 [Example 36, (3R)-6-{[5-(Ethylsulphonyl)-2-phenoxyphenyl]amino}-1,3-dimethyl-4-(tetrahydro-2H-pyran-4-yl)-3,4-dihydropyrido[2,3-b]pyrazin-2(1H)-one]
39	124	35	CCS(=O)(=O)c1ccc(Oc2ccc(F)cc2)c(Nc2ccc3c(n2)N(C2CCOCC2)[C@H](C)C(=O)N3C)c1 [Example 37, (3R)-6-{[5-(Ethylsulphonyl)-2-(4-fluorophenoxy)phenyl]amino}-1,3-dimethyl-4-(tetrahydro-2H-pyran-4-yl)-3,4-dihydropyrido[2,3-b]pyrazin-2(1H)-one]

Second part, the molecule before the results:

Structure (SMILES)	IC50 [1] [nM]	IC50 (MOLM-13 cells) [nM]	IC50 [2] [nM]
C[C@@H]1C(=O)N(C)c2ccc(Nc3cccc(-c4ccc(C#N)cc4)c3)nc2N1C1CCOCC1 [Example 18, 3′-{[(3R)-1,3-Dimethyl-2-oxo-4-(tetrahydro-2H-pyran-4-yl)-1,2,3,4-tetrahydropyrido[2,3-b]pyrazin-6-yl]amino}biphenyl-4-carbonitrile]	294	1650	1100
C=CCS(=O)(=O)c1ccc(OC)c(Nc2ccc3c(n2)N(C2CCN(C)CC2)[C@H](C)C(=O)N3C)c1 [Example 23, (3R)-6-{[5-(Allylsulphonyl)-2-methoxyphenyl]amino}-1,3-dimethyl-4-(1-methylpiperidin-4-yl)-3,4-dihydropyrido[2,3-b]pyrazin-2(1H)-one]	64	51	27
COc1ccc(S(=O)(=O)C(C)C)cc1Nc1ccc2c(n1)N(C1CCN(C(=O)OC(C)(C)C)CC1)[C@H](C)C(=O)N2C [Example 24, tert-Butyl 4-[(3R)-6-{[5-(isopropylsulphonyl)-2-methoxyphenyl]amino}-1,3-dimethyl-2-oxo-2,3-dihydropyrido[2,3-b]pyrazin-4(1H)-yl]piperidine-1-carboxylate]	78	147	86
COc1ccc(S(C)(=O)=O)cc1Nc1ccc2c(n1)N(C1CCN(C(=O)OC(C)(C)C)CC1)[C@H](C)C(=O)N2C [Example 25, tert-Butyl 4-[(3R)-6-{[2-methoxy-5-(methylsulphonyl)phenyl]amino}-1,3-dimethyl-2-oxo-2,3-dihydropyrido[2,3-b]pyrazin-4(1H)-yl]piperidine-1-carboxylate]	135	576	156
CC(C)S(=O)(=O)c1cccc(Nc2ccc3c(n2)N(C2CCN(CCC(F)(F)F)CC2)[C@H](C)C(=O)N3C)c1 [Example 30, (3R)-6-{[3-(Isopropylsulphonyl)phenyl]amino}-1,3-dimethyl-4-[1-(3,3,3-trifluoropropyl)piperidin-4-yl]-3,4-dihydropyrido[2,3-b]pyrazin-2(1H)-one]	114	73	20
C[C@@H]1C(=O)N(C)c2ccc(Nc3cccc(N4CCN(C)CC4)c3)nc2N1C1CCOCC1 [Example 41, (3R)-1,3-Dimethyl-6-{[3-(4-methylpiperazin-1-yl)phenyl]amino}-4-(tetrahydro-2H-pyran-4-yl)-3,4-dihydropyrido[2,3-b]pyrazin-2(1H)-one]	630	708	133
C[C@@H]1C(=O)N(C)c2ccc(Nc3cccc(S(C)(=N)=O)c3)nc2N1C1CCOCC1 (stereo partly drawn) [Example 44, (3R)-1,3-Dimethyl-6-{[3-(S-methylsulphonimidoyl)phenyl]amino}-4-(tetrahydro-2H-pyran-4-yl)-3,4-dihydropyrido[2,3-b]pyrazin-2(1H)-one]	7340	> 10000	3640
